This is an account of results in ChEMBL document CHEMBL5625248, “Identification of unique indolylcyanoethylenyl sulfonylanilines as novel structural scaffolds of potential antibacterial agents” (Eur J Med Chem, 2023).

As usually defined, the MIC is the lowest concentration that inhibits growth of the organism.

≈ marks a conversion by molar mass, not a printed value.

Holding throughout (format): functional
For experiment [1], the system named is Staphylococcus aureus. In words: Antibacterial activity against methicilin-resistant Staphylococcus aureus N315 assessed as inhibition of bacterial growth incubated for 18 hrs by two fold broth microdilution assay. (In general: Dilution methods test growth across graded concentrations, often in twofold steps.)
The next experiment concerns Enterococcus faecalis. The experiment can be described thus: Antibacterial activity against Enterococcus faecalis assessed as inhibition of bacterial growth incubated for 18 hrs by two fold broth microdilution assay.
In experiment [2] the test system is Staphylococcus aureus. In words: Antibacterial activity against Staphylococcus aureus assessed as inhibition of bacterial growth incubated for 18 hrs by two fold broth microdilution assay.
In experiment [3] the test system is Staphylococcus aureus. In words: Antibacterial activity against Staphylococcus aureus ATCC 25923 assessed as inhibition of bacterial growth incubated for 18 hrs by two fold broth microdilution assay.
In experiment [4] the test system is Staphylococcus aureus. In words: Antibacterial activity against Staphylococcus aureus ATCC 29213 assessed as inhibition of bacterial growth incubated for 18 hrs by two fold broth microdilution assay.
The next experiment deals with Klebsiella pneumoniae. The experiment can be described thus: Antibacterial activity against Klebsiella pneumoniae assessed as inhibition of bacterial growth incubated for 18 hrs by two fold broth microdilution assay.
The subject of experiment [5] is Escherichia coli. In words: Antibacterial activity against Escherichia coli assessed as inhibition of bacterial growth incubated for 18 hrs by two fold broth microdilution assay.
In experiment [6] the test system is Pseudomonas aeruginosa. The experiment can be described thus: Antibacterial activity against Pseudomonas aeruginosa assessed as inhibition of bacterial growth incubated for 18 hrs by two fold broth microdilution assay.
A further experiment deals with Acinetobacter baumannii. The experiment can be described thus: Antibacterial activity against Acinetobacter baumannii assessed as inhibition of bacterial growth incubated for 18 hrs by two fold broth microdilution assay.
Experiment [7] concerns Pseudomonas aeruginosa. In words: Antibacterial activity against Pseudomonas aeruginosa ATCC 27853 assessed as inhibition of bacterial growth incubated for 18 hrs by two fold broth microdilution assay.
For experiment [8], the system named is Escherichia coli. The experiment can be described thus: Antibacterial activity against Escherichia coli ATCC 25922 assessed as inhibition of bacterial growth incubated for 18 hrs by two fold broth microdilution assay.

Take `CC(=O)Nc1ccc(S(=O)(=O)/C(C#N)=C/c2c[nH]c3cc(F)ccc23)cc1`: the minimal inhibitory concentration (MIC) with Staphylococcus aureus [1] worked out at 64 µg/mL (≈ 167 µM); with Enterococcus faecalis, 32 µg/mL (≈ 83.5 µM); with Staphylococcus aureus [2] it was 32 µg/mL (≈ 83.5 µM); with Staphylococcus aureus [3] it was 128 µg/mL (≈ 334 µM); in the experiment on Staphylococcus aureus [4] it was 32 µg/mL (≈ 83.5 µM); with Klebsiella pneumoniae it was 128 µg/mL (≈ 334 µM). The MIC with Escherichia coli [5] was 128 µg/mL (≈ 334 µM); in the experiment on Pseudomonas aeruginosa [6], 64 µg/mL (≈ 167 µM); in the experiment with Acinetobacter baumannii, 16 µg/mL (≈ 41.7 µM); with Pseudomonas aeruginosa [7], 8 µg/mL (≈ 20.9 µM); in the experiment with Escherichia coli [8], 8 µg/mL (≈ 20.9 µM).
Take `CC(=O)Nc1ccc(S(=O)(=O)/C(C#N)=C/c2c[nH]c3ccccc23)cc1`: the MIC with Staphylococcus aureus [1] was 8 µg/mL (≈ 21.9 µM); in the experiment with Enterococcus faecalis, 2 µg/mL (≈ 5.47 µM); in the experiment with Staphylococcus aureus [2], 256 µg/mL (≈ 701 µM); in the experiment with Staphylococcus aureus [3] it was 8 µg/mL (≈ 21.9 µM); in the experiment with Staphylococcus aureus [4], 8 µg/mL (≈ 21.9 µM); in the experiment on Klebsiella pneumoniae it was 16 µg/mL (≈ 43.8 µM). Also, the MIC was 64 µg/mL (≈ 175 µM) in the experiment on Escherichia coli [5]; 32 µg/mL (≈ 87.6 µM) in the experiment with Pseudomonas aeruginosa [6]; 0.5 µg/mL (≈ 1.37 µM) in the experiment on Acinetobacter baumannii; 1 µg/mL (≈ 2.74 µM) with Pseudomonas aeruginosa [7]; 4 µg/mL (≈ 10.9 µM) in the experiment on Escherichia coli [8].
Turning to `N#C/C(=C\c1c[nH]c2cc(Br)ccc12)S(=O)(=O)c1ccc(N)cc1`, the MIC with Staphylococcus aureus [1] was found to be 128 µg/mL (≈ 318 µM); in the experiment on Enterococcus faecalis, 128 µg/mL (≈ 318 µM); in the experiment with Staphylococcus aureus [2] it was 256 µg/mL (≈ 636 µM); with Staphylococcus aureus [3], 16 µg/mL (≈ 39.8 µM); in the experiment with Staphylococcus aureus [4], 32 µg/mL (≈ 79.5 µM); with Klebsiella pneumoniae it was 16 µg/mL (≈ 39.8 µM). Besides, the MIC came out at 32 µg/mL (≈ 79.5 µM) in the experiment with Escherichia coli [5]; 32 µg/mL (≈ 79.5 µM) with Pseudomonas aeruginosa [6]; 8 µg/mL (≈ 19.9 µM) in the experiment with Acinetobacter baumannii; 32 µg/mL (≈ 79.5 µM) with Pseudomonas aeruginosa [7]; 128 µg/mL (≈ 318 µM) in the experiment with Escherichia coli [8].
With `CC(=O)Nc1ccc(S(=O)(=O)/C(C#N)=C/c2cn(CC3CCCC3)c3ccccc23)cc1`, the minimum inhibitory concentration (MIC) was found to be 128 µg/mL (≈ 286 µM) in the experiment with Staphylococcus aureus [1]; 32 µg/mL (≈ 71.5 µM) with Enterococcus faecalis; 8 µg/mL (≈ 17.9 µM) in the experiment with Staphylococcus aureus [2]; 128 µg/mL (≈ 286 µM) in the experiment on Staphylococcus aureus [3]; 16 µg/mL (≈ 35.7 µM) in the experiment on Staphylococcus aureus [4]; 4 µg/mL (≈ 8.94 µM) in the experiment with Klebsiella pneumoniae. The minimum inhibitory concentration (MIC) with Escherichia coli [5] is 256 µg/mL (≈ 572 µM); in the experiment on Pseudomonas aeruginosa [6] it was 64 µg/mL (≈ 143 µM); with Acinetobacter baumannii, 32 µg/mL (≈ 71.5 µM); in the experiment with Pseudomonas aeruginosa [7] it was 16 µg/mL (≈ 35.7 µM); in the experiment on Escherichia coli [8], 64 µg/mL (≈ 143 µM).
For `N#C/C(=C\c1cn(Cc2cccc(Cl)c2)c2ccccc12)S(=O)(=O)c1ccc(N)cc1`, the MIC in the experiment with Staphylococcus aureus [1] turned out to be 128 µg/mL (≈ 286 µM); in the experiment on Enterococcus faecalis, 128 µg/mL (≈ 286 µM); in the experiment with Staphylococcus aureus [2], 128 µg/mL (≈ 286 µM); in the experiment with Staphylococcus aureus [3], 64 µg/mL (≈ 143 µM); with Staphylococcus aureus [4], 32 µg/mL (≈ 71.4 µM); with Klebsiella pneumoniae it was 256 µg/mL (≈ 571 µM). For the same molecule, the minimal inhibitory concentration (MIC) with Escherichia coli [5] was 256 µg/mL (≈ 571 µM); in the experiment on Pseudomonas aeruginosa [6], 64 µg/mL (≈ 143 µM); with Acinetobacter baumannii, 32 µg/mL (≈ 71.4 µM); with Pseudomonas aeruginosa [7] it was 64 µg/mL (≈ 143 µM); in the experiment on Escherichia coli [8], 32 µg/mL (≈ 71.4 µM).
Turning to `N#C/C(=C\c1cn(CC2CCCC2)c2ccccc12)S(=O)(=O)c1ccc(N)cc1`, the MIC was found to be 256 µg/mL (≈ 631 µM) in the experiment with Staphylococcus aureus [1]; 32 µg/mL (≈ 78.9 µM) with Enterococcus faecalis; 256 µg/mL (≈ 631 µM) in the experiment on Staphylococcus aureus [2]; 256 µg/mL (≈ 631 µM) with Staphylococcus aureus [3]; 16 µg/mL (≈ 39.5 µM) in the experiment with Staphylococcus aureus [4]; 4 µg/mL (≈ 9.86 µM) with Klebsiella pneumoniae. Also, the MIC in the experiment with Escherichia coli [5] was 256 µg/mL (≈ 631 µM); in the experiment on Pseudomonas aeruginosa [6], 64 µg/mL (≈ 158 µM); in the experiment with Acinetobacter baumannii, 32 µg/mL (≈ 78.9 µM); in the experiment on Pseudomonas aeruginosa [7], 64 µg/mL (≈ 158 µM); in the experiment with Escherichia coli [8], 8 µg/mL (≈ 19.7 µM).
Take `N#C/C(=C\c1cn(CC2CC2)c2ccccc12)S(=O)(=O)c1ccc(N)cc1`: the minimum inhibitory concentration (MIC) came to 128 µg/mL (≈ 339 µM) in the experiment with Staphylococcus aureus [1]; 128 µg/mL (≈ 339 µM) in the experiment on Enterococcus faecalis; 32 µg/mL (≈ 84.8 µM) with Staphylococcus aureus [2]; 64 µg/mL (≈ 170 µM) with Staphylococcus aureus [3]; 32 µg/mL (≈ 84.8 µM) in the experiment on Staphylococcus aureus [4]; 16 µg/mL (≈ 42.4 µM) with Klebsiella pneumoniae. Moreover, the minimum inhibitory concentration (MIC) in the experiment with Escherichia coli [5] is 256 µg/mL (≈ 678 µM); with Pseudomonas aeruginosa [6], 64 µg/mL (≈ 170 µM); in the experiment with Acinetobacter baumannii it was 64 µg/mL (≈ 170 µM); in the experiment on Pseudomonas aeruginosa [7] it was 16 µg/mL (≈ 42.4 µM); in the experiment on Escherichia coli [8] it was 16 µg/mL (≈ 42.4 µM).
